# Earlier results as cited in US8349312B2, “Proline substituted cyclosporin analogues” (Enanta Pharmaceuticals, Inc., priority 2009, dated 2013).
# Legend:
# cyclophilin A = cyclophilin A (Homo sapiens, UniProt P62937)
# hepatitis C virus = settings: Paeshuyse et al., Antiviral Research 65(3):A41 (2005)
# Chain of cyclophilin A (P62937 whole entry, species assumed): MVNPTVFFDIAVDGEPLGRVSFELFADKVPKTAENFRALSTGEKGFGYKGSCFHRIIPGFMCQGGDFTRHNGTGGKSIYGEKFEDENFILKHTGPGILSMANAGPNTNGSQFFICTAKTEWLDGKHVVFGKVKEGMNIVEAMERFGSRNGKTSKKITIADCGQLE
compound,measurement,setting,value
C/C=C/C[C@@H](C)[C@@H](O)[C@H]1C(=O)N[C@@H](CC)C(=O)N(C)[C@H](C)C(=O)N(CC)[C@@H](C(C)C)C(=O)N[C@@H](C(C)C)C(=O)N(C)[C@@H](CC(C)C)C(=O)N[C@@H](C)C(=O)N[C@H](C)C(=O)N(C)[C@@H](CC(C)C)C(=O)N(C)[C@@H](CC(C)C)C(=O)N(C)[C@@H](C(C)C)C(=O)N1C [DEBIO-025],binding affinity for cyclophilin A,cyclophilin A,potent binding affinity
same,inhibition of hepatitis C virus replication,hepatitis C virus,potent and selective inhibition
